In patent publication US5457106A, “Pyridine derivatives, their production and use” (Takeda Chemical Industries, Ltd., priority 1991, dated 1995):
Structures can show the parent of a compound that is named as a salt. Where two headings read alike, the source gives them in different places.

Assays:
[1] = tested on: Rat carrageenin pedal edema; experiment: Rat carrageenin pedal edema inhibitory activity; format: in vivo, rat (Jcl: SD); settings: Rattus norvegicus, po, 3 h, 50 mg/kg, orally, 3 hours after carrageenin; read-out: Inhibitory percentage (carrageenin pedal edema)
Outline: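 Male Jcl:SD rats (6 weeks, 160-220 g) received test compound orally as a 5% gum arabic suspension, topped up with water to 5 ml/rat. One hour later 0.05 ml of 1% carrageenin was injected subcutaneously into the right hind foot pad. Edema volume was the foot volume increase 3 hours post-injection.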

ELAM-1 = experiment: Adhesion protein expression inhibitory activity, ELAM-1; format: cell-based
Method: (§1) Adhesion Protein Expression Inhibitory Activity The various concentrations of test compounds were added to the human umbilical cord-derived vascular endothelial cells [sold by Klabo] which were seeded in the gelatin coat plate and the mixture was incubated at 37° C. for 15 minutes. Then, the human tumor necrosis factor-α[TNF-α; sold by Genzyme] was added therein to the final concentration of 1 ng/ml and incubation was carried out at 37° C. for 3 hours for expression of ELAM-1 and for 6 hours for that of ICAM-I. After the reaction, the cells were fixed using glutaraldhyde and the expression amount of ELAM-1 and ICAM-1 was measured by the cell-ELISA method. That is, the expression was determined by […] the adhesion proteins on the cells in the system using anti-ELAM-1 antibody BBA-2 and anti-ICAM-1 antibody BBA4 as the first antibody as well as horseradish peroxidase-labeled rabbit anti-mouse IgG antibody as the second antibody.

ICAM-1 = experiment: Adhesion protein expression inhibitory activity, ICAM-1; format: cell-based; settings: human umbilical vascular endothelial cells, TNF-α, 360 min
Method: as §1

[2] = tested on: ART (antigen-responding T-cell); experiment: In vitro ART (antigen-responding T-cell) proliferation test; format: cell-based, Lewis rat; settings: Rattus norvegicus, T-cell, read-out: % Inhibition of ART growth
[3] = tested on: Mouse phenylquinone writhing; experiment: Mouse phenylquinone writhing inhibitory activity; format: in vivo, mouse (Slc: ICR); settings: Mus musculus, po, 20 min, 50 mg/kg, orally; read-out: Inhibitory percentage (phenylquinone writhing)
Outline: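 Male ICR mice (4 weeks, 17–24 g) dosed orally with compound suspended in 5% gum arabic. After 30 min, 0.02% phenylquinone (0.1 ml/10 g) given i.p.; writhing and stretching responses counted over 20 min.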

[4] = tested on: Rat reversed passive Arthus reaction (skin); experiment: Rat reversed passive Arthus reaction (skin) inhibitory activity; format: in vivo, rat (Jcl: SD); settings: po, orally, read-out: Inhibitory percentage (reversed passive Arthus reaction)
Method: Rat Reversed Passive Arthus Reaction (skin) Inhibitory Activity This reaction was-induced by using domestic rabbit anti-egg albumin (EA) antiserum according to the method of Chang and Otterness [Chang, Y. -H. and Otterness, I. G.: Eur. J. Pharmacol. 69, 155 (1981)]. Using six Jcl: SD male rats (7 weeks old, weight about 250 g) per one group, the hair was removed from the back under ether anesthesia, 1 ml of 0.5% EA physiological saline was injected […] into the tail vein, and further each 0.1 ml of diluted antiserum (6 mg protein antibody/ml) was injected in the back on both dexter and sinister sides. […] Acceleration of permeability through the vessel by the reaction was measured by injecting 1 ml of 1% Evans blue physiological saline intravenously at three hours after the induction of the reaction. Then, after 30 minutes, the rat was sacrificed by exsanguination. The skin was peeled off and the area of pigment spot (length×breadth, mm^2) was measured.

[5] = tested on: brewer's yeast induced pyrexia; experiment: Antipyretic activity (brewer's yeast induced pyrexia); format: in vivo, rat (DS line); settings: 50 mg/kg, orally; for Antipyretic activity, .increment. °C.: at peak time
Method: Antipyretic Activity Six male DS line rats, 7 weeks old, weighing 200 to 240 g (Nihon Clea) per one group were used. According to the method of Winder et al. (J. Pharmac. Exp. Ther. 138: 405 (1963)), a suspension of 15% brewer's yeast (Sigma) in physiological saline (1 ml/100 g, b.w.) was injected subcutaneously at 16 hours before measurement of the body temperature to induce pyrexia. After injection of yeast, only water was provided, and each rat was bred separately in a five duplicate cage. At 16, 17 and 18 hours after yeast injection, the rectal temperature was measured by a thermistor thermometer (Takara Kogyo K.K.), and this was taken as the basal body temperature. […] Animals having the body temperature of not lower than 38.5° C. at 18 hours after yeast injection were selected, and a test compound was administered orally (1 ml/100 g, b.w.). As a control, only the solvent was provided. Upon administration, the body temperature of the control group and that of the test compound-administered group were adjusted to the same temperature. The rectal temperature was measured every hour till five hours after administration.

[6] = tested on: Mouse acetic acid writhing; experiment: Mouse acetic acid writhing inhibitory activity; format: in vivo, mouse (Slc: ICR); settings: Mus musculus, po, 20 min, orally, read-out: Inhibitory percentage (acetic acid writhing)
Method: Mouse Acetic Acid Writhing Inhibitory Activity
Ten male Slc: ICR mice, 4 weeks old, per 1 group were used. A test compound was administered orally, and after 30 minutes, 0.1 ml/10 g body weight of physiological saline containing 0.6% acetic acid was injected intraperitoneally. For 20 minutes, writhing (in agony condition) response by administration of acetic acid was counted regarding individual animals. The inhibitory percentage relative to the mean response counts of a control group was calculated regarding respective animals in a test compound administration group. The test compound was suspended in 5% gum arabic solution, and the administration volume was 0.2 ml/10 g.

5-Lipoxygenase = molecular target: T1, 5-Lipoxygenase (Rattus norvegicus, UniProt P12527); experiment: 5-Lipoxygenase inhibitory activity in rat basophilic leukemia cells; format: cell-based
T1 construct: rat basophilic leukemia cell suspension; endogenous in cells
T1 sequence (P12527 1-673): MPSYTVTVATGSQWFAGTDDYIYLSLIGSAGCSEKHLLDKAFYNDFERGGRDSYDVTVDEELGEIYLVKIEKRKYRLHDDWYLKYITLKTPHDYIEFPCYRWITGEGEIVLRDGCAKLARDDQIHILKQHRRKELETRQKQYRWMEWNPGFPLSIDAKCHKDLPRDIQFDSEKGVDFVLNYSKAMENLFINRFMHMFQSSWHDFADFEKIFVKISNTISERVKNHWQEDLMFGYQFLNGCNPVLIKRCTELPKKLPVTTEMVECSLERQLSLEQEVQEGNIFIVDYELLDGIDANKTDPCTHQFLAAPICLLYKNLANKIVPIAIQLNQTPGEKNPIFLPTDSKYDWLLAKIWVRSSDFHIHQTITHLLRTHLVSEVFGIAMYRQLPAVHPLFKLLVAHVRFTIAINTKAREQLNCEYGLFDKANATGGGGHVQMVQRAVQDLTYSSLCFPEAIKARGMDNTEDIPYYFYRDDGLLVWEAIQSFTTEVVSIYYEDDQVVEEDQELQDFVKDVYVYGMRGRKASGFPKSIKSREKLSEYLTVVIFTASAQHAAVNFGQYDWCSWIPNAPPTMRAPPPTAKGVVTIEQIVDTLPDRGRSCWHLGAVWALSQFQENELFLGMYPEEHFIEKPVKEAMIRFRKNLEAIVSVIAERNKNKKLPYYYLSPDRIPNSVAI
Method: 5-Lipoxygenase Inhibitory Activity […] Then, 0.1 ml of mast cell medium containing 50 μg of arachidonic acid and 1 μg of calcium ionophore (A-23187) were added and the mixture was allowed to stand at 37° C. for 15 minutes. Ethanol (1 ml) was added thereto and the mixture was shaken well, and filtered (Membrane filter, 0.45 μm). […] As a control, the measurement was carried out according to the same manner except that 0.01 ml of the solvent used for dissolving the test compound was used in place of the test compound. The inhibitory percentage (%) was calculated from the following equation to obtain IC50.

cyclooxygenase = molecular target: T2, cyclooxygenase (Rattus norvegicus, UniProt Q63921); experiment: Cyclooxygenase inhibitory activity (HHT formation from arachidonic acid in rat platelet-rich plasma); format: cell-based, rat (Jcl:wistar)
T2 construct: from tissue; host or cells: platelets in platelet-rich plasma from rat abdominal aorta blood (Jcl:wistar, male)
T2 sequence (Q63921 27-602): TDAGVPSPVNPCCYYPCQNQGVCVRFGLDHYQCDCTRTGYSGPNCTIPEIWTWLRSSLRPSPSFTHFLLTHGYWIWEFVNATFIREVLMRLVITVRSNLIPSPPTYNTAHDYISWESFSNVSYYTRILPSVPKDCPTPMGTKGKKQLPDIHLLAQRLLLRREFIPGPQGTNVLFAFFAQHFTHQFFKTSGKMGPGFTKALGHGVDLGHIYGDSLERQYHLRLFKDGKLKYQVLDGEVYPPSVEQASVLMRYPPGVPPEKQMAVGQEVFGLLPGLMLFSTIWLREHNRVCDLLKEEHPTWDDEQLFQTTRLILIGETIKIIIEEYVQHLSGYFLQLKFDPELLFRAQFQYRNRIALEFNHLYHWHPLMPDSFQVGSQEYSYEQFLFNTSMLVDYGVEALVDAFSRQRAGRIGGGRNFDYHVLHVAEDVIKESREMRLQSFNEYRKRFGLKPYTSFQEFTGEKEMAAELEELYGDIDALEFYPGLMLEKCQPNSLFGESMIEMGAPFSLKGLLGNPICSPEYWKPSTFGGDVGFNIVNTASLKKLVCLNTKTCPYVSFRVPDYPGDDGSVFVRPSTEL

[7] = 10 μM, human umbilical vascular endothelial cells, TNF-α; 180 min

## O=C1c2ccccc2S(=O)(=O)N1CSc1ccncc1 [Example 172, 4-saccharinmethylthiopyridine]
[1]
  inhibition in vivo at 50 mg/kg: 19%
ELAM-1; 13 μM, human umbilical vascular endothelial cells, TNF-α, 180 min
  Expression Inhibitory Potency, ELAM-1: 31%
ICAM-1; 13 μM
  Expression Inhibitory Potency, ICAM-1: 34%

## O=C1SC(=Cc2ccncc2)C(=O)N1CCCCSc1ccncc1 [Example 184, 4-[4-[5-(4-pyridyl)methylene-2,4-thiazolidinedione]butylthio]pyridine]
ELAM-1; [7]
  Expression Inhibitory Potency, ELAM-1: 47%

## CC(C)(C)C(=O)NCCCSc1ccncc1.Cl [Example 24, 4-[3-(pivaloylamino)propylthio]pyridine hydrochloride]
[2]
  inhibition at 1 µM: 29%
  inhibition at 10 µM: 35%
[3]
  inhibition in vivo at 50 mg/kg: 56%
[4]
  inhibition in vivo at 50 mg/kg: 46%
[5]
  Antipyretic activity, peak time: 2 h
  Antipyretic activity, .increment. °C.: -1.33 °C

## O=C1C(=Cc2ccccc2)SC(=S)N1CCCCSc1ccncc1 [Example 153, 4-[4-(5-benzylidenerhodanine)butylthio]pyridine]
[2]
  inhibition at 1 µM: -20%
  inhibition at 10 µM: 75%
[6]
  inhibition in vivo at 50 mg/kg: 49%
5-Lipoxygenase; 5-HETE, read-out: 5-Lipoxygenase inhibitory activity, 5-HETE IC50
  IC50: 1.3 µM
5-Lipoxygenase; LTB4, read-out: 5-Lipoxygenase inhibitory activity, LTB4 IC50
  IC50: 0.79 µM

## CCCCCCCCCC=C1SC(=O)N(CCCCSc2ccncc2)C1=O [Example 187, 4-[4-(5-nonylmethylene-2,4-thiazolidinedione)butylthio]pyridine hydrochloride]
ELAM-1; [7]
  Expression Inhibitory Potency, ELAM-1: 53%
ICAM-1; 10 μM
  Expression Inhibitory Potency, ICAM-1: 79%

## O=C(NCCCSc1ccncc1)c1cccnc1 [Example 41, 4-[3-(nicotinoylamino)propylthio]pyridine]
[3]
  inhibition in vivo at 50 mg/kg: 73%
cyclooxygenase
  IC50: 11.3 µM
[4]
  inhibition in vivo at 50 mg/kg: 35%

## CCCCOc1ccc(C(=O)NCCCSc2ccncc2)cc1 [Example 35, 4-[3-(4-n-butoxybenzoylamino)propylthio]pyridine hydrochloride]
[2]
  inhibition at 1 µM: 18%
  inhibition at 10 µM: 33%
[3]
  inhibition in vivo at 50 mg/kg: 60%
cyclooxygenase
  IC50: 2.3 µM
[4]
  inhibition in vivo at 50 mg/kg: 30%

## O=c1[nH]c2ccccc2c(=O)n1CCCCSc1ccncc1 [Example 146, 3-[4-(4-pyridylthio)butyl]quinazolin-2,4(1H,3H)-dione]
[2]
  inhibition at 1 µM: 22%
  inhibition at 10 µM: 20%
ELAM-1; 13 μM, human umbilical vascular endothelial cells, TNF-α; 180 min
  Expression Inhibitory Potency, ELAM-1: 33%
cyclooxygenase
  IC50: 5.1 µM

## O=C1c2ccccc2S(=O)(=O)N1CSc1ccncc1 [Example 180, 4-(saccharinmethylthio)pyridine hydrochloride]
ELAM-1; 13 μM, human umbilical vascular endothelial cells, TNF-α, 180 min, hydrochloride
  Expression Inhibitory Potency, ELAM-1: 29%
ICAM-1; 13 μM, hydrochloride
  Expression Inhibitory Potency, ICAM-1: 35%

## O=C(NCCCSc1ccncc1)c1cnccn1 [Example 124, 4-[3-(2-pyrazinecarbonylamino)propylthio]pyridine]
[1]
  inhibition in vivo at 50 mg/kg: 51%
[6]
  inhibition in vivo at 50 mg/kg: 69%
cyclooxygenase
  IC50: 5.5 µM
[5]
  Antipyretic activity, peak time: 2 h
  Antipyretic activity, .increment. °C.: -1.52 °C

## O=C(NCCCSc1ccncc1)C(F)(F)F [Example 25, 4-[3-(trifluoroacetylamino)propylthio]pyridine hydrochloride]
[2]
  inhibition at 1 µM: 44%
  inhibition at 10 µM: -7%
[3]
  inhibition in vivo at 50 mg/kg: 60%
cyclooxygenase
  IC50: 3.4 µM
[4]
  inhibition in vivo at 50 mg/kg: 24%

## O=C(C=Cc1cccs1)NCCCSc1ccncc1 [Example 56, 4-[3-(2-thiopheneacrylamino)propylthio]pyridine]
[4]
  inhibition in vivo at 50 mg/kg: 32%

## O=C1SC(=Cc2cccnc2)C(=O)N1CCCCSc1ccncc1 [Example 185, 4-[4-[5-(3-pyridyl)methylene-2,4-thiazolidinedione]butylthio]pyridine]
ELAM-1; [7]
  Expression Inhibitory Potency, ELAM-1: 33%

## O=C(NCCCSc1ccncc1)c1ccco1 [Example 53, 4-[3-(2-furoylamino)propylthio]pyridine]
cyclooxygenase
  IC50: 8.6 µM
[4]
  inhibition in vivo at 50 mg/kg: 21%
